Source: paper PMC5864730, “Peptide ion channel toxins from the bootlace worm, the longest animal on Earth” (Scientific Reports, 2018)
Positions of bridges follow the written chain, without caps; N, C: chain ends. Non-standard residues stand in square brackets, D forms with d. No end group written: not given here. Hyp = O=C(O)[C@@H]1C[C@@H](O)CN1

What was measured:
[1] = system: BgNaV1; conditions: cited from earlier work
Excerpt: (§1) The α-1 induced alterations of gating kinetics resemble the effects of other peptide toxins known to be binding to the so-called neurotoxin binding site 3[18],[19]. Such toxins trap the voltage-sensing segment S4 of domain 4 in its inward or dea ...

[2] = system: DmNaV1; conditions: cited from earlier work
Excerpt: as §1

[3] = target: Blattella germanica voltage-gated sodium channel BgNaV1 (Blattella germanica) (UniProt O01307)
[4] = target: voltage-gated sodium channel NaV1.6 (not stated (mNaV1.6 in the methods, human in the results)) (UniProt Q9WTU3)

In the case of ATX-II: sea anemone toxin, the inhibition of inactivation [1] is given as “complete inhibition of the inactivation” and the inhibition of inactivation [2] is given as “complete inhibition of the inactivation”.

For anthopleurin A: sea anemone toxin, the inhibition of inactivation [1] is given as “complete inhibition of the inactivation” and the inhibition of inactivation [2] is given as “complete inhibition of the inactivation”.

B1: nemertide α-1 (peptide)
peptide: GCIATGSFCTLSKGCCTKNCGWNFKCN[Hyp][Hyp]NQK
modifications: disulfide 15-26, 2-16, 9-20
With B1 the two-electrode voltage clamp on oocytes: concentration-response curve of the toxin-induced modulation of BgNaV1 currents, EC50 [3] was 8.6 nM and the two-electrode voltage clamp on oocytes: concentration-response curve on NaV1.6, EC50 (Figure S4C) [4] was 800 nM.
